From patent publication US12421225B2, “Heteroaromatic amide derivative and medicament containing the same” (KAKEN PHARMACEUTICAL CO., LTD., priority 2018, dated 2025) come the findings set out here.

Test [1] has as its target human Nav1.5 (Homo sapiens (Human), UniProt Q14524). Nature of the test: Human Nav1.5 inhibitory activity evaluation (automated patch clamp QPatch16X, HEK293 cells stably expressing human Nav1.5). The test is classed as cell-based. Particulars: HEK293 cells stably expressing human Nav1.5, automated patch clamp QPatch16X. Put shortly: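 IC50 derived from concentration-response of inward current at the 20th of 20 action-potential-mimicking pulses (holding −80 mV, leak corrected with −100 mV step). HEK293 cells stably expressing human Nav1.5, room temperature, extracellular pH 7.4, intracellular CsF-based pH 7.3, 0.1% DMSO.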

In test [2] the test system is male ICR mice. Nature of the test: Effect on a neuropathic pain (L5 spinal nerve cut, von Frey 50% pain threshold). Particulars: allodynia-developed mice, dose of 10 mg/kg or less, single oral administration. Format: in vivo. How it is done:
Test Example 4: Effect on a Neuropathic Pain
Five-week old male ICR mice were used for the test. The skin and muscles were incised to expose the sixth lumbar vertebra under isoflurane anesthesia, and the right transverse process was removed. The L5 spinal nerve was isolated from the surrounding tissue to cut out, and then the incision site was sutured.
The 50% pain threshold of the plantar surface was determined by referring to the method of Chaplan S R et al. (J Neurosci Methods 1994, 53: 55-63) using von Frey filaments (0.008 g, 0.02 g, 0.04 g, 0.07 g, 0.16 g, 0.4 g and 0.6 g). First, the mice were placed in a measurement case with a lattice scaffold and habituatedd until the animal settled; 0.07 g of filament was pressed against the plantar surface for about 3 seconds. If withdrawal behavior was observed, the filament with the stimulation intensity one level lower was used to apply stimulation, and conversely, if the withdrawal behavior was not detected, the filament with the stimulation intensity one level higher was used to apply stimulation. By repeating this operation, starting from 2 times before and after the presence or absence of escape behavior changed, the results for a total of 6 times were recorded, to calculate a 50% pain threshold using the following calculation formula. 50% pain threshold (g)=(10^[Xf+κδ]/10000)
Xf is the value of the stimulus intensity of the filament used in the last stimulation (log value), κ is the value derived from the pattern of presence/absence of withdrawal behavior for 6 times, and δ is the difference in stimulus intensity (log value) between the filaments used (here 0.365).

The subject of test [3] is male ICR mice. In words: Effect on acute pain (capsaicin-induced pain-related behavior, hind paw). The test is classed as in vivo. On the procedure: Test Example 3: Effect on Acute Pain
Six-week old male ICR mice were used for the test. Test compounds were orally administered at 1-10 mg/kg and the mice were habituated to a clear observation cage for 60 minutes. The mice were lightly restrained under no anesthesia and 20 μL of 80 μg/mL (0.8% ethanol-saline) capsaicin solution was injected subcutaneously into the plantar surface of rihgt hind paw of mice. The mice were returned to the observation cage and, from just after that, the duration of pain-related behavior (licking, shaking) occurring in the right hind limb was measured as the reaction time for 5 minutes.
The inhibition rate of the test compound was determined by the following calculation formula. Test compound inhibition rate (%)=100×[1−(response time of test compound administered group/response time of vehicle control group)]

Test [4] has as its target human Nav1.7 (Homo sapiens (Human), UniProt Q15858). Nature of the test: Human Nav1.7 inhibitory activity evaluation (automated patch clamp QPatch16X, HEK293A cells stably expressing human Nav1.7 and human Navβ1). Format: cell-based. Particulars: HEK293A cells stably expressing human Nav1.7 and human Navβ1, automated patch clamp QPatch16X. Put shortly:
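IC50 calculated from the concentration-response of inward current evoked by the second −10 mV, 50 ms depolarisation, which follows a 15 s conditioning step at roughly 30-40% inactivation and a 100 ms −120 mV interval. Cells: HEK293A expressing human Nav1.7/Navβ1, automated patch clamp, room temperature, 0.1% DMSO final.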

Chain of human Nav1.5 (Q14524 whole entry): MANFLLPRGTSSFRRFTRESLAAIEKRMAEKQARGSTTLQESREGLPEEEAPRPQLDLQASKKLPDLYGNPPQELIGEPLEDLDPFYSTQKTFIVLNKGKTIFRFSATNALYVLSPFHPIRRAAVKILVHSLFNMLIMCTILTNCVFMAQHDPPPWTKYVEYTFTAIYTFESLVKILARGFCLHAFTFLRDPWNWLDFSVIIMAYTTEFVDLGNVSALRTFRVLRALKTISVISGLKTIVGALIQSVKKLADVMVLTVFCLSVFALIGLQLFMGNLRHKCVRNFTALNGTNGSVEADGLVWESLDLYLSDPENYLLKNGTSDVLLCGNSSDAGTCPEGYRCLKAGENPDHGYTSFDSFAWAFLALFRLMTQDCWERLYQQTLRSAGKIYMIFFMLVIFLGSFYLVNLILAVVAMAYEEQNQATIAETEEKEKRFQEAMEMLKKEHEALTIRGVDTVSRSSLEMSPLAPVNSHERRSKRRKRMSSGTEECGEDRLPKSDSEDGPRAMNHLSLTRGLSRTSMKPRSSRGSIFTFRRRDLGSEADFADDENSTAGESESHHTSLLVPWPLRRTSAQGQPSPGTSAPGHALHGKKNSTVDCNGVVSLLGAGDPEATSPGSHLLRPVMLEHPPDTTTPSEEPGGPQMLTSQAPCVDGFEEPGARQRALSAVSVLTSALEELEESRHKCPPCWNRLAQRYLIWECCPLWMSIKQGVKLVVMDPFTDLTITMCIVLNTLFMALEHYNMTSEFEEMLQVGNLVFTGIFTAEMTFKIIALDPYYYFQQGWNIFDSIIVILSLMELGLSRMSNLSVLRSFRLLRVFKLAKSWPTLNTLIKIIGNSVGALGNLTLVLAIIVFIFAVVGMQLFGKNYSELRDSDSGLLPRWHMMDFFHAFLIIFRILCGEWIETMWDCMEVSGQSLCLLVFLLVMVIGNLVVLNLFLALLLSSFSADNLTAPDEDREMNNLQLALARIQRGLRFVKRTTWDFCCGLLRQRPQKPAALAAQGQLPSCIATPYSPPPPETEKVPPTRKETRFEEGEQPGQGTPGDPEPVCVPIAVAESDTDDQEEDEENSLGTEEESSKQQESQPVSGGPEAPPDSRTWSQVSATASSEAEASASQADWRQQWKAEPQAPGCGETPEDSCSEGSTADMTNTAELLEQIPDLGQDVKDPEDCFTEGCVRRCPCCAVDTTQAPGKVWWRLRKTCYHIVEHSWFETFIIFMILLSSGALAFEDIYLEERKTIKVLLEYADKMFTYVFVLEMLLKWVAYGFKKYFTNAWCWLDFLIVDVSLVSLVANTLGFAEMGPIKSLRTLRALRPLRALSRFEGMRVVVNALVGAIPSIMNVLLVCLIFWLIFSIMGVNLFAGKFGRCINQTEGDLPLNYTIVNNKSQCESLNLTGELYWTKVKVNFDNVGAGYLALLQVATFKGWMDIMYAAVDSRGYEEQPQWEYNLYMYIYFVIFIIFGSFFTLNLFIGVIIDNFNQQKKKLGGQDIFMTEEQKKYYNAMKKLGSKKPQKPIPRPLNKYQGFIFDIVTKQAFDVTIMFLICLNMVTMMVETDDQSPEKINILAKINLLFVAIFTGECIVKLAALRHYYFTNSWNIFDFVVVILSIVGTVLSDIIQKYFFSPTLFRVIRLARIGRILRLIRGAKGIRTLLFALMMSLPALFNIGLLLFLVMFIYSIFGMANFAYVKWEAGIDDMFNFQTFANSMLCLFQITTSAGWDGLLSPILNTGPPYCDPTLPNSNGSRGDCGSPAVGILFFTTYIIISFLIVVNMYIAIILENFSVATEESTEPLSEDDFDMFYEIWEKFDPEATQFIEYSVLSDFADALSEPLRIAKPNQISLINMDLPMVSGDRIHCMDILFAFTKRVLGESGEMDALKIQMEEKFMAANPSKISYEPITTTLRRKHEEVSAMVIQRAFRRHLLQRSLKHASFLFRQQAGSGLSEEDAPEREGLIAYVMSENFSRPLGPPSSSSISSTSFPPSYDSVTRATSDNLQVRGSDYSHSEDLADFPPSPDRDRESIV
Chain of human Nav1.7 (Q15858 whole entry): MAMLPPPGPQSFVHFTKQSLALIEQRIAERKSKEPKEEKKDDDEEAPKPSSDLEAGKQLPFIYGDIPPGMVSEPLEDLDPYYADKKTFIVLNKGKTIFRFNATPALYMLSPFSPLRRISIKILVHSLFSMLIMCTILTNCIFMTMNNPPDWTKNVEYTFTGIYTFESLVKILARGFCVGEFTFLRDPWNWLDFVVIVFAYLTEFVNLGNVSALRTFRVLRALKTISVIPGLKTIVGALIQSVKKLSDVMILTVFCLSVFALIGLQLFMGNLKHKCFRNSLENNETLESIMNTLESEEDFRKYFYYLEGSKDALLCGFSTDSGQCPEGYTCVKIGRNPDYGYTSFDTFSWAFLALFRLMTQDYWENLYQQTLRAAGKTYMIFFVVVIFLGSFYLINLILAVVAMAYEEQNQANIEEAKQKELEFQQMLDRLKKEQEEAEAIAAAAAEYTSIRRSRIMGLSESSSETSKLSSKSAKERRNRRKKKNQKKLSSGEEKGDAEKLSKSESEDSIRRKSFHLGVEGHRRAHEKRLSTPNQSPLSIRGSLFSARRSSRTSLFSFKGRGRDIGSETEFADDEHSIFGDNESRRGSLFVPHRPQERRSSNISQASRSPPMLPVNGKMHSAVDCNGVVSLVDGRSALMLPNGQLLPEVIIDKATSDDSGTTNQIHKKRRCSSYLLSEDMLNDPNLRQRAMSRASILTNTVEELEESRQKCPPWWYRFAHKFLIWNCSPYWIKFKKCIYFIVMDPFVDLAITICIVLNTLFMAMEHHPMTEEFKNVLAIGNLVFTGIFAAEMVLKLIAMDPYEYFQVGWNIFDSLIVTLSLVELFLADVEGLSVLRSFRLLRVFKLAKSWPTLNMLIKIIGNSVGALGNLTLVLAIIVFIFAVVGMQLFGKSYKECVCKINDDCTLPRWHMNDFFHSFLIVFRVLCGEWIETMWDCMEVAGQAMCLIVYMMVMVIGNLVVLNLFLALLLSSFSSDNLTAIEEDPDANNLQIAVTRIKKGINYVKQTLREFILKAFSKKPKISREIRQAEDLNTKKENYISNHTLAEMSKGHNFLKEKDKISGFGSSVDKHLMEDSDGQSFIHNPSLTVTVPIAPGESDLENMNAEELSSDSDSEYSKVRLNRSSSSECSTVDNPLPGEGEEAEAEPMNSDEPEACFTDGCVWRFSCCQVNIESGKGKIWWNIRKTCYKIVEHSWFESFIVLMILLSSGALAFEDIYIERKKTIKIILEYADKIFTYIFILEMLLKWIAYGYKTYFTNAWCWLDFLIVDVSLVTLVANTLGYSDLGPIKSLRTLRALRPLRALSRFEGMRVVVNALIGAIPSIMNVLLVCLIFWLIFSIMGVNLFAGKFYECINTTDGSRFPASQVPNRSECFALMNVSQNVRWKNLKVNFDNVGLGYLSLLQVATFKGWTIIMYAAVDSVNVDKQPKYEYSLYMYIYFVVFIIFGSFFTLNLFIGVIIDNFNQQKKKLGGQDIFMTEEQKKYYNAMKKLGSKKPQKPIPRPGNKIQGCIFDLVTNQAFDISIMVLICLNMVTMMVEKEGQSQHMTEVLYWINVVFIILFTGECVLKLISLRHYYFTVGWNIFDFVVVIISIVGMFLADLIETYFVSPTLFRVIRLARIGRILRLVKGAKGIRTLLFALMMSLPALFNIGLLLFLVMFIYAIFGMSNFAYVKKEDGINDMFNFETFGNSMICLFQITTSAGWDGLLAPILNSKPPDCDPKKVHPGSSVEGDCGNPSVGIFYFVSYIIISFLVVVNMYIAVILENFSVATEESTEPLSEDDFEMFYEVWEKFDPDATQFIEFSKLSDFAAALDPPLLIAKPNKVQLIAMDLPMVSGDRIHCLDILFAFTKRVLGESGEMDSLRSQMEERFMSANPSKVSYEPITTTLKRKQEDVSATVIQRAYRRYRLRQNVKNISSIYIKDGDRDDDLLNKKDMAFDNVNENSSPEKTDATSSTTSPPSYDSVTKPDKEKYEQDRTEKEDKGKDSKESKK
Chain of human Nav1.7 (Q07699 19-218 partner): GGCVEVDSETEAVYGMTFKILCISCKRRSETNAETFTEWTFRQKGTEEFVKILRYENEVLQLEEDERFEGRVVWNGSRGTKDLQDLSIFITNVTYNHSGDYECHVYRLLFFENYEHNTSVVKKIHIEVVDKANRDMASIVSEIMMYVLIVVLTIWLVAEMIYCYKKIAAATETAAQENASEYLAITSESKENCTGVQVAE

As for `N#Cc1ccc2c(c1)C[C@@H](NC(=O)c1cc3n(n1)CCC(c1ccccc1F)O3)CO2` (stereo partly drawn) [Example 70, N—((R)-6-cyanochroman-3-yl)-5-(2-fluorophenyl)-6,7-dihydro-5H-pyrazolo[5,1-b][1,3]oxazine-2-carboxamide], the concentration for half-maximal inhibition (IC50) in test [1] is 1000 to 3000 nM; in test [4] it was below 1000 nM. The “50% pain threshold (antiallodynic effect)” value in test [2] is given as “increased the 50% pain threshold”. Further, the “Inhibition rate (%)” value in test [3] is reported as “A (Compounds with an inhibition rate of 30% or more are indicated by the letter “A”)”.
